According to ChEMBL document CHEMBL4811226, “Species Prioritization Based on Spectral Dissimilarity: A Case Study of Polyporoid Fungal Species” (J Nat Prod, 2021):
The source made the active and inactive calls. No cut-off for these calls is given here.

Test system: HCT-116
Assay: Cytotoxicity against human HCT-116 cells assessed as reduction in cell viability measured after 48 hrs by MTS assay
Assay type: functional, cell-based
Conditions: for IC50: HCT-116, 48 h

With `C=C1CC[C@H]2[C@](C)(COC(=O)[C@@H](CC(=O)O)[C@@H](OC[C@H]3C(=C)CC[C@H]4[C@](C)(CO)CCC[C@]34C)C(=O)OC)CCC[C@]2(C)[C@H]1CO[C@@H](C(=O)OC)[C@H](CC(=O)O)C(=O)OC(C)C` the Activity was “inactive”.
With `C=C1CC[C@H]2[C@](C)(COC(=O)[C@@H](CC(=O)O)[C@@H](OC[C@H]3C(=C)CC[C@H]4[C@](C)(COC(=O)[C@@H](CC(=O)O)[C@@H](OC[C@H]5C(=C)CC[C@H]6[C@](C)(CO)CCC[C@]56C)C(=O)OC)CCC[C@]34C)C(=O)OC)CCC[C@]2(C)[C@H]1CO[C@@H](C(=O)OC)[C@H](CC(=O)OC)C(=O)O` the Activity was “inactive”.
For `C=C1CC[C@H]2[C@](C)(COC(=O)[C@@H](CC(=O)OC)[C@@H](OC[C@H]3C(=C)CC[C@H]4[C@](C)(CO)CCC[C@]34C)C(=O)OC)CCC[C@]2(C)[C@H]1CO[C@@H](C(=O)OC)[C@H](CC(=O)O)C(=O)OC`, the IC50 was 3.6 µM.
`C=C1CC[C@H]2C(C)(C)CCC[C@]2(C)[C@H]1CO[C@@H](C(=O)OC)[C@H](CC(=O)OC)C(=O)OC` was tested, and the Activity was “inactive”.
`C=C1CC[C@H]2[C@@]3(C)CCC[C@]2(C)[C@H]1CO[C@@H](C(=O)OC)[C@H](CC(=O)O)C(=O)OC[C@]1(C)CCC[C@]2(C)[C@@H](CO[C@@H](C(=O)OC)[C@H](CC(=O)OC)C(=O)OC3)C(=C)CC[C@@H]12` was tested, and the Activity was “inactive”.
With `C=C1CC[C@H]2[C@@]3(C)CCC[C@]2(C)[C@H]1CO[C@@H](C(=O)OC)[C@H](CC(=O)O)C(=O)OC[C@]1(C)CCC[C@]2(C)[C@@H](CO[C@@H](C(=O)OC)[C@H](CC(=O)O)C(=O)OC3)C(=C)CC[C@@H]12` the Activity was “inactive”.
`C=C1CC[C@H]2[C@](C)(COC(=O)[C@@H](CC(=O)OC)[C@@H](OC[C@H]3C(=C)CC[C@H]4[C@](C)(CO)CCC[C@]34C)C(=O)OC)CCC[C@]2(C)[C@H]1CO[C@@H](C(=O)OC)[C@H](CC(=O)OC)C(=O)OC` was tested, and the Activity was “inactive”.
In the case of `C=C1CC[C@H]2[C@](C)(COC(=O)[C@@H](CC(=O)O)[C@@H](OC[C@H]3C(=C)CC[C@H]4[C@](C)(CO)CCC[C@]34C)C(=O)OC)CCC[C@]2(C)[C@H]1CO[C@@H](C(=O)OC)[C@H](CC(=O)OC)C(=O)OC`, the IC50 is reported as 4.3 µM.
For `C=C1CC[C@H]2[C@](C)(COC(=O)[C@@H](CC(=O)O)[C@@H](OC[C@H]3C(=C)CC[C@H]4[C@](C)(CO)CCC[C@]34C)C(=O)OC)CCC[C@]2(C)[C@H]1CO[C@@H](C(=O)OC)[C@H](CC(=O)O)C(=O)OC`, the Activity was “inactive”.
